Results on 2 molecules are retold here after patent publication US9376415B2, “Tricyclic condensed heterocyclic compound, process of producing same, and use thereof” (NIPPON SUISAN KAISHA, LTD., priority 2009, dated 2016).

Holding throughout (assay type): cell-based
One experiment has as its system HT-29. Description: Cell growth inhibitory activity (Almar Blue), HT-29. As to conditions: Homo sapiens; HT-29 cancer cells, cultured for 72 hours. The procedure:
(§1) The cell growth inhibitory activity of Compound 1 was evaluated using 4 types of cancer cells. The cancer cells used were human cancer cells (HT-29, A431, NCI-H460, […]). Compound 1 was dissolved in DMSO. One hundred […] of a suspension of cancer cells was charged in each 96 well micro plate (1.0 to 3.0×10^3 cells/well). After 24 hours, each of solutions of Compounds 1 to 6 was added in an amount of 2 ml to 100 ml of culture fluid to give final concentrations of […] and cultured for 72 hours. Thereafter, 20 ml of an Almar Blue reagent was added to each solution, followed by culturing for 6 hours.
The cell growth inhibitory activity of Compound 6 was evaluated using cancer cells (HT-29). The method for the evaluation was the same as the method by which Compound 1 was evaluated.

The test system of the next experiment is U937. The experiment can be described thus: Cell growth inhibitory activity (Almar Blue), U937. As to conditions: Homo sapiens, U-937; U937 cancer cells, cultured for 72 hours. On the procedure: as §1
The next experiment concerns NCI-H460. Description: Cell growth inhibitory activity (Almar Blue), NCI-H460. As to conditions: Homo sapiens; NCI-H460 cancer cells, cultured for 72 hours. On the procedure:
as §1

The subject of a further experiment is PC-3. Description: Cell growth inhibitory activity (Almar Blue), PC-3. As to conditions: Homo sapiens; PC-3 cancer cells, cultured for 72 hours.

`C=C1C(O)C(C)(/C=C/C(=O)O)C2C(C)=CC3(C)C(/C(C)=C\C)OC1C23C` (centres unmarked) [Compound 6]: in the experiment on HT-29, the half-maximal inhibitory concentration (IC50) stood at 0.31 µM.
With `C/C=C(/C)C1OC2C(C)=CC(C)(/C=C/C(=O)O)C3C(C)=CC1(C)C23C` (centres unmarked) [Compound 1], the IC50 came to 0.59 µM in the experiment on HT-29, 1.1 µM in the experiment with U937, 0.58 µM in the experiment with NCI-H460 and 0.82 µM with PC-3.

Usually IC50 stands for the concentration needed to halve the response being measured. The low end stands for greater potency in that assay, the high end for weaker potency in that assay.
